Tested on: AIF
Assay: AIF translocation (Western blot and HCS)
Type: cell-based, human
Settings: 24 hr
Experimental: FIG. 26. DBZIM induced cytoplasm-to-nucleus translocation of AIF. (A). DBZIM translocated AIF from cytoplasm to nucleus. HepG2 cells were treated by DBZIM for 24 hr. Cytoplasmic and nuclear proteins were fractionated using a kit from Pierce. 15 μg of proteins were resolved in 4-12% gradient PAGE-SDS gel. The target proteins were recognized by the antibody of AIF, and visualized by the ECL method. The membrane was stripped and re-probed for α-tubulin as the loading control for cytoplasmic fraction and Tata binding protein TBP for nuclear protein. (B). HLE cells were grown in 96-well plate and treated by DBZIM for 24 hr. The cells were then fixed and stained by antibody of AIF. The images were acquired and analyzed using ArrayScan VTI HCS reader (Thermal Scientific, PA, USA) and Target Activation BioApplication software. The arrows indicate the cytoplasmic and the nuclear location of the AIF staining in the control and the DBZIM, respectively. (C). Quantification of AIF staining in different subcellular compartments. […]
HLE cells cultured in 96-well plate were treated with DBZIM for 24 hr before staining and imaging. […] The cells were imaged and analyzed on ArrayScan VTI HCS reader (Thermal Scientific, PA, USA). Fluorescence intensity in the cytoplasmic and nuclear area was plotted for indication of cytoplasm to nucleus translocation. […]

## [Br-].c1ccc(Cn2cc[n+](Cc3ccccc3)c2)cc1 [DBZIM, 1,3-bisbenzylimidazolium bromide]
  AIF translocation: induce the translocation of AIF to the nucleus
